Each structure is given as a SMILES string. “And” between values parts separate entries of the source, which are not always exact repeats. Equal entries are not always repeated.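 Five concentrations, 48 hours, 96-well plates. GI50: concentration for 50% inhibition of growth. TGI: total growth inhibition.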

In PubChem BioAssay (NCI) one finds GI50 and TGI data, which are given here for 10 compounds.

Test systems include COLO 205 colon; EKVX NSCLC; HOP-62 NSCLC; HOP-92 NSCLC; MOLT-4 leukemia; OVCAR-4 ovarian; OVCAR-8 ovarian; RPMI-8226 leukemia; SF-295 CNS; SN12C renal.
What all share (test): inhibition of tumour cell growth, NCI panel, 48 h

For the compound `Cc1ccccc1C[P+](c1ccccc1)(c1ccccc1)c1ccccc1`, the GI50 in the assay with COLO 205 colon was 1.16 µM; with EKVX NSCLC, 0.873 µM; in the assay on HOP-62 NSCLC, 1.79 µM; in the assay with HOP-92 NSCLC, 0.433 µM; with MOLT-4 leukemia, 4.9 µM; in the assay with OVCAR-4 ovarian, 0.64 µM. The GI50 with OVCAR-8 ovarian is 1.48 µM; in the assay with RPMI-8226 leukemia, 0.39 µM; with SF-295 CNS, 2.34 µM; with SN12C renal, 2.42 µM. Moreover, the TGI with COLO 205 colon is 3.28 µM; with EKVX NSCLC it was above 100 µM; with HOP-62 NSCLC, 58.9 µM; in the assay with HOP-92 NSCLC, 3.77 µM; in the assay with MOLT-4 leukemia, above 100 µM; with OVCAR-4 ovarian, 9.39 µM. Further, the TGI with OVCAR-8 ovarian is above 100 µM; in the assay on RPMI-8226 leukemia, 5.4 µM; in the assay on SF-295 CNS, above 100 µM; in the assay with SN12C renal, above 100 µM.
As for `S=C1SCN(C2CCCCCCCCCCC2)CN1C1CCCCCCCCCCC1`, the TGI with COLO 205 colon, with EKVX NSCLC, with HOP-62 NSCLC, with HOP-92 NSCLC, in the assay with MOLT-4 leukemia and in the assay with OVCAR-4 ovarian was above 100 µM in each case. For the same compound, the TGI in the assay on OVCAR-8 ovarian, in the assay with RPMI-8226 leukemia, in the assay on SF-295 CNS and in the assay with SN12C renal was above 100 µM throughout.
On to `COc1cc(/C=C2\Cc3ccccc3C2=O)cc(OC)c1OC`, for which the TGI in the assay on COLO 205 colon, in the assay with EKVX NSCLC, in the assay on HOP-62 NSCLC, in the assay with HOP-92 NSCLC, with MOLT-4 leukemia and in the assay with OVCAR-4 ovarian was above 100 µM each time. The TGI in the assay on OVCAR-8 ovarian, with RPMI-8226 leukemia, with SF-295 CNS and with SN12C renal was above 100 µM each time.
Turning to `COc1ccc2c(c1)c(-c1ccc(-c3cn(C)c4ccc(OC)cc34)o1)cn2C`, the GI50 was 5.13 µM in the assay with COLO 205 colon; 5.48 µM in the assay with EKVX NSCLC; above 100 µM in the assay with HOP-62 NSCLC; 1.03 µM in the assay with HOP-92 NSCLC; above 100 µM with MOLT-4 leukemia; 2.06 µM with OVCAR-4 ovarian. Besides, the GI50 was 8.02 µM with OVCAR-8 ovarian, 2.25 µM with RPMI-8226 leukemia, 13.4 µM in the assay on SF-295 CNS and 21.6 µM in the assay on SN12C renal. The TGI is 31.1 µM in the assay with COLO 205 colon; 23.4 µM in the assay on EKVX NSCLC; above 100 µM in the assay on HOP-62 NSCLC; 10.3 µM with HOP-92 NSCLC; above 100 µM in the assay with MOLT-4 leukemia; 4.08 µM in the assay on OVCAR-4 ovarian. Besides, the TGI in the assay on OVCAR-8 ovarian was above 100 µM; in the assay on RPMI-8226 leukemia, 5.07 µM; in the assay with SF-295 CNS, 62.6 µM; in the assay on SN12C renal, above 100 µM.
Turning to `CC(=O)Oc1cc(Cl)c(OC(C)=O)c2c(OC(C)=O)c(C)c(O[Si](C)(C)C(C)(C)C)cc12`, the TGI with COLO 205 colon was 32.5 µM; with EKVX NSCLC, 33.9 µM; in the assay on HOP-62 NSCLC, 34 µM; in the assay on HOP-92 NSCLC it was 20 µM; with MOLT-4 leukemia it was 24.8 µM; in the assay with OVCAR-4 ovarian it was 26.2 µM. The TGI is 7.56 µM in the assay on OVCAR-8 ovarian, 9.41 µM with RPMI-8226 leukemia, 23 µM with SF-295 CNS and 23.1 µM in the assay on SN12C renal.
For the compound `CN=C(N)NC`, the TGI in the assay on COLO 205 colon, in the assay on EKVX NSCLC, in the assay on HOP-62 NSCLC, in the assay on HOP-92 NSCLC, with MOLT-4 leukemia and with OVCAR-4 ovarian was above 100 µM each time. The TGI in the assay with OVCAR-8 ovarian, in the assay with RPMI-8226 leukemia, in the assay on SF-295 CNS and in the assay with SN12C renal was above 100 µM throughout.
For the compound `CCCCCCC(O)C(O)CCC(O)C1CCC(CCCCC(O)CC2=CC(C)OC2=O)O1` (configuration not stated), the GI50 in the assay on COLO 205 colon was 14.4 µM; in the assay with EKVX NSCLC, 0.291 µM; with HOP-62 NSCLC, 12.4 µM; in the assay on HOP-92 NSCLC it was 18.5 µM; in the assay on MOLT-4 leukemia, 13.4 µM; in the assay on SF-295 CNS it was 0.0305 µM. For the same compound, the GI50 with SN12C renal was 16.2 µM. Moreover, the TGI in the assay on COLO 205 colon is 4.36 µM and 29.7 µM; with EKVX NSCLC it was 12 µM; in the assay with HOP-62 NSCLC, 26 µM; in the assay on HOP-92 NSCLC it was 46.7 µM; in the assay on MOLT-4 leukemia it was 43.9 µM; with OVCAR-4 ovarian, 39.6 µM. In addition, the TGI in the assay with OVCAR-8 ovarian amounted to 6.65 µM; in the assay on RPMI-8226 leukemia, 30.6 µM; in the assay on SF-295 CNS, 20.1 µM; in the assay with SN12C renal, 34 µM.
Turning to `O=C(COC(=O)c1cccc2c(=O)c3ccccc3[nH]c12)Nc1ccc(S(=O)(=O)Nc2ncccn2)cc1`, the TGI in the assay with COLO 205 colon was above 100 µM; in the assay on EKVX NSCLC it was above 100 µM; with HOP-62 NSCLC it was above 100 µM; in the assay on HOP-92 NSCLC it was 51 µM; in the assay on MOLT-4 leukemia it was 71 µM; in the assay with OVCAR-4 ovarian, above 100 µM. For the same compound, the TGI in the assay with OVCAR-8 ovarian, with RPMI-8226 leukemia, in the assay on SF-295 CNS and in the assay on SN12C renal was above 100 µM throughout.
Consider `Nc1nc(CC2(O)CCCCC2)cc(-c2ccccc2)n1`, for which the TGI with COLO 205 colon was 32.9 µM; in the assay on EKVX NSCLC it was above 100 µM; with HOP-62 NSCLC, above 80.6 µM; in the assay on HOP-92 NSCLC, above 71.9 µM; with MOLT-4 leukemia it was 53.9 µM; in the assay with OVCAR-4 ovarian it was above 76.8 µM. Also, the TGI with OVCAR-8 ovarian was above 84.7 µM; with RPMI-8226 leukemia it was 78.6 µM; with SF-295 CNS it was above 77.3 µM; with SN12C renal it was 37.4 µM.
In the case of `Cc1ccc(-n2c3c(c4c(CN)c(O)ccc42)CCc2ccccc2C3=O)cc1`, the GI50 with COLO 205 colon was 19.5 µM; with EKVX NSCLC, 12.4 µM; in the assay on HOP-62 NSCLC it was 17.2 µM; in the assay on HOP-92 NSCLC, 2.31 µM; in the assay on MOLT-4 leukemia, 2.33 µM; in the assay with OVCAR-4 ovarian it was 20.8 µM. In addition, the GI50 in the assay on OVCAR-8 ovarian is 19.7 µM; in the assay with RPMI-8226 leukemia it was 4.31 µM; with SF-295 CNS it was 10.2 µM; in the assay on SN12C renal, 14.2 µM. In addition, the TGI came to 47 µM in the assay with COLO 205 colon; 28.5 µM in the assay with EKVX NSCLC; 31.7 µM in the assay on HOP-62 NSCLC; 8.11 µM in the assay with HOP-92 NSCLC; 6.51 µM in the assay with MOLT-4 leukemia; 46 µM in the assay on OVCAR-4 ovarian. The TGI in the assay with OVCAR-8 ovarian was 38 µM; with RPMI-8226 leukemia, 23.1 µM; in the assay with SF-295 CNS, 22.5 µM; in the assay with SN12C renal, 28.2 µM.
